ChEMBL document CHEMBL1201862, “PubChem BioAssay data set” (2004)
The source made the active and inactive calls.

Legend:
HeLa = test: HeLa cell cytotoxicity, dose response, cytotoxicity control for MITF activator project, CellTiter-Glo luminescence, cherry-pick samples (AID 540259); type: functional, cell-based; settings: Homo sapiens
[1] = Luminescence Cell-Based Dose Retest to Confirm Inhibitors of Cancer Stem Cells. [Related pubchem assays (depositor defined):AID2717, AID2721]; type: functional; settings: Homo sapiens
[2] = molecular target: T1, Ubiquitin-conjugating enzyme E2 N (Homo sapiens, UniProt P61088); type: functional;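 note: Dose-response confirmation in a TR-FRET assay detecting UBC13-driven polyubiquitin chain formation, inhibition measured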
T1 sequence (P61088 whole entry): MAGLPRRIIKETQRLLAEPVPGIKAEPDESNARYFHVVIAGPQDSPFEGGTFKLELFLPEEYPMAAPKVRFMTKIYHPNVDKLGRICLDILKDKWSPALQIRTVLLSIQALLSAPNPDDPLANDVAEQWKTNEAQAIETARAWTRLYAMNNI

A-375 = test: A375 melanoma cell viability reduction, dose response, counter-screen for MITF modulator project, cherry-pick samples, set 2 (AID 540335); type: functional, cell-based; settings: Homo sapiens
Trypsin = Trypsin (Sus scrofa, UniProt P00761); test: porcine trypsin inhibitors, dose response, selectivity assay for Rce1 protease inhibitor project, biochemical, quenched peptide fluorescence, cherry-pick (AID 488789)
Chain of Trypsin (P00761 whole entry): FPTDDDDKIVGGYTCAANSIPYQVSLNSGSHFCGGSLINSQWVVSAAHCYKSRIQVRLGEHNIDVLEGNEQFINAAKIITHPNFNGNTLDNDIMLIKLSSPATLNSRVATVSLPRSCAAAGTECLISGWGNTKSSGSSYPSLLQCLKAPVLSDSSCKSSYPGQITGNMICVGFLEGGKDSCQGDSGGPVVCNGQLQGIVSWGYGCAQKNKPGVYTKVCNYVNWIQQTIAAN

[3] = molecular target: FAD-linked sulfhydryl oxidase ALR (Homo sapiens, UniProt P55789); test: inhibitors of human ALR sulfhydryl oxidase, dose response, biochemical, H2O2 detection, luminescence, cherry-pick (AID 493248)
Chain of FAD-linked sulfhydryl oxidase ALR (P55789 whole entry): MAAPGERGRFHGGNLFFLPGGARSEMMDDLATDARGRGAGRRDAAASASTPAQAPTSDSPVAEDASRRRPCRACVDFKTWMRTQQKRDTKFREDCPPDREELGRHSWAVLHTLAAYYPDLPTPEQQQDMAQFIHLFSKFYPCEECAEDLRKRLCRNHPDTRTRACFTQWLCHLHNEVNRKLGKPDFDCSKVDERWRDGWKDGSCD

CAAX prenyl protease 2 = molecular target: T2, CAAX prenyl protease 2 (Homo sapiens, UniProt Q9Y256); test: human Rce1 protease inhibitors, dose response, biochemical, yeast membranes, quenched-peptide fluorescence, cherry-pick (AID 588849)
T2 sequence (Q9Y256 whole entry): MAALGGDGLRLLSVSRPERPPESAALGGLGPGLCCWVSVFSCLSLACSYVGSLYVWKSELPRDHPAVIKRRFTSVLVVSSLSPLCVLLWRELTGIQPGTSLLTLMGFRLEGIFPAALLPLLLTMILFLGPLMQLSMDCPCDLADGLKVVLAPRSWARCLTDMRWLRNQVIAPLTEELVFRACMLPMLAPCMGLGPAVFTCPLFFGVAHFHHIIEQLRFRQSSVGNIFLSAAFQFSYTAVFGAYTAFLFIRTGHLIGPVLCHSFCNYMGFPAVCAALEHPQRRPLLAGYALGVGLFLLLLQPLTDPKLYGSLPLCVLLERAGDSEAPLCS

[4] = HeLa cell cytotoxicity, dose response, cytotoxicity control for MgcRacGAP inhibitor project (AID 624300); type: functional
[5] = molecular target: T3, Rac GTPase-activating protein 1 (Homo sapiens, UniProt Q9H0H5); test: MgcRacGAP GTPase-activating activity inhibitors, confirmation, biochemical, ADP Hunter fluorescence, primary and confirmatory (AID 624330); type: functional
T3 sequence (Q9H0H5 whole entry): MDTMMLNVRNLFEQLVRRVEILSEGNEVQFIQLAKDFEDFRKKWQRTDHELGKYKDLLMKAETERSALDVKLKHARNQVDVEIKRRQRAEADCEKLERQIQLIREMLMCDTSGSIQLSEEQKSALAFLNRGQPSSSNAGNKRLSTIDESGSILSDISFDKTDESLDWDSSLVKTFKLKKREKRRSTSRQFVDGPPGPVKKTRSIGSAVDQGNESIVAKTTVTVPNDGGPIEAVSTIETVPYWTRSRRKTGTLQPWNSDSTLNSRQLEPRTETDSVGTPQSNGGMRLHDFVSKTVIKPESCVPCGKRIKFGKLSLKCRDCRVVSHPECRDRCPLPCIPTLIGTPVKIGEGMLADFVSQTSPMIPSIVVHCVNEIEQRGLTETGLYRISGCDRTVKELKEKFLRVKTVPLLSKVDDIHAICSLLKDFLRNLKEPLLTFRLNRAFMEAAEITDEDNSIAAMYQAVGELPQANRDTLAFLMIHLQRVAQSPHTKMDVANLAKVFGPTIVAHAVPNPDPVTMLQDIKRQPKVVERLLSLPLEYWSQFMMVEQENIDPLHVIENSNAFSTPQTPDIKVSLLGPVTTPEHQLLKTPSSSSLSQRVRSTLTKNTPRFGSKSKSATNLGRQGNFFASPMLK

HEK293 = test: cells; type: functional, cell-based; settings: Homo sapiens
[6] = molecular target: T4, Nuclear receptor subfamily 0 group B member 1 (Homo sapiens, UniProt P51843); test: Luminescence-based cell-based high throughput dose response assay for inhibitors of the orphan nuclear receptor subfamily 0, group B, member 1 (DAX1; NR0B1). [Related pubchem assays (depositor defined):AID504766, AID504790]; type: functional
T4 sequence (P51843 whole entry): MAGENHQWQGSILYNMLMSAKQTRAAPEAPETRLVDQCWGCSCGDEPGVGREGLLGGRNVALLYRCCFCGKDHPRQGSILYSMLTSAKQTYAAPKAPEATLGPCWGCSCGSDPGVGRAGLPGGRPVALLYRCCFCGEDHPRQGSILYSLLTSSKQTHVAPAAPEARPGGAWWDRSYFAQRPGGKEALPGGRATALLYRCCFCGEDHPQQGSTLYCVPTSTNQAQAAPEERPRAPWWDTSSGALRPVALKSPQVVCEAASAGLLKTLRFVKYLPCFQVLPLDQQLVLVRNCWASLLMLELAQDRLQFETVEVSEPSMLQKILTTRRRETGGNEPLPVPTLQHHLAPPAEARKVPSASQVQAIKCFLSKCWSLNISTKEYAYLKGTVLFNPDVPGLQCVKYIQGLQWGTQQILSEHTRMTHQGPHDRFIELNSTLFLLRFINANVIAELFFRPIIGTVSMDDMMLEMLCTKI

[7] = molecular target: T5, RNA-binding protein pos-1 (Caenorhabditis elegans, UniProt G5EF15); test: inhibitors of POS-1/mex-3 RNA binding, dose response, biochemical, fluorescence polarization (AID 1964);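 note: purified POS-1 fused to maltose binding protein made in E. coli; potency of compounds blocking POS-1 binding to fluorescent RNA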
T5 sequence (G5EF15 whole entry): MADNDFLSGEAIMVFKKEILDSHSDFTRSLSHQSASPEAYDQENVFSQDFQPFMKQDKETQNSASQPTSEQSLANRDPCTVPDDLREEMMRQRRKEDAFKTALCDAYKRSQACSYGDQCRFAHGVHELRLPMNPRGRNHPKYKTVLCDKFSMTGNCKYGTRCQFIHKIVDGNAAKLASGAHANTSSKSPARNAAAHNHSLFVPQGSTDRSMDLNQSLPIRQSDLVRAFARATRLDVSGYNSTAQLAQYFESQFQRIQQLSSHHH

[8] = molecular target: T6, Zinc finger protein mex-5 (Caenorhabditis elegans, UniProt Q9XUB2); test: MEX-5/TCR-2 RNA interaction inhibitors, dose response, biochemical, C. elegans, fluorescence polarization (AID 1960)
T6 sequence (Q9XUB2 whole entry): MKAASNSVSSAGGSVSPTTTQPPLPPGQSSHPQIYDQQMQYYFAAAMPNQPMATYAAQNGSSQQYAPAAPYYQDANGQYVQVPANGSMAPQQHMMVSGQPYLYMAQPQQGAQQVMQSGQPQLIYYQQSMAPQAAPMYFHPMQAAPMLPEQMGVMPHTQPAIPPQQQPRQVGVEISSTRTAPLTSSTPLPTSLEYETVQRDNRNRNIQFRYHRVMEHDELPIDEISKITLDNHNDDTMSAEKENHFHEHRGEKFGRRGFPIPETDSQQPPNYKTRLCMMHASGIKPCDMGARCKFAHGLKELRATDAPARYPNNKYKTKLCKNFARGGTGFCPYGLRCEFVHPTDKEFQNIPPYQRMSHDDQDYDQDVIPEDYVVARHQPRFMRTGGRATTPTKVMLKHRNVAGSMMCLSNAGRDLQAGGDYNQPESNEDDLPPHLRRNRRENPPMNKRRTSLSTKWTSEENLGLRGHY

[9] = molecular target: T7, Endoribonuclease toxin MazF (Escherichia coli K-12, UniProt P0AE70); test: MazF toxin RNase activators, dose response, biochemical, fluorescence, single-stranded RNA substrate, uHTS hits (AID 588481); type: functional
T7 sequence (P0AE70 whole entry): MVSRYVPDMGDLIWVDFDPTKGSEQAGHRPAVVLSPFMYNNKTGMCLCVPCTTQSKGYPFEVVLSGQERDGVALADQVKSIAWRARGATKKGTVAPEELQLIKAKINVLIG

[10] = molecular target: T7, Endoribonuclease toxin MazF; test: fluorescent RNA oligo signal without MazF, dose response, counter-screen for MazEF activator project, biochemical, fluorescence, single-stranded RNase substrate (AID 588502); type: functional
[11] = A cytotoxicity screen of small molecule inhibitors of the PhoP region in Salmonella typhi identified in the primary screen. [Related pubchem assays: 1850, 1864, 1985 ]; type: functional
Protein skinhead-1 = molecular target: T8, Protein skinhead-1 (Caenorhabditis elegans, UniProt P34707); type: functional
T8 sequence (P34707 whole entry): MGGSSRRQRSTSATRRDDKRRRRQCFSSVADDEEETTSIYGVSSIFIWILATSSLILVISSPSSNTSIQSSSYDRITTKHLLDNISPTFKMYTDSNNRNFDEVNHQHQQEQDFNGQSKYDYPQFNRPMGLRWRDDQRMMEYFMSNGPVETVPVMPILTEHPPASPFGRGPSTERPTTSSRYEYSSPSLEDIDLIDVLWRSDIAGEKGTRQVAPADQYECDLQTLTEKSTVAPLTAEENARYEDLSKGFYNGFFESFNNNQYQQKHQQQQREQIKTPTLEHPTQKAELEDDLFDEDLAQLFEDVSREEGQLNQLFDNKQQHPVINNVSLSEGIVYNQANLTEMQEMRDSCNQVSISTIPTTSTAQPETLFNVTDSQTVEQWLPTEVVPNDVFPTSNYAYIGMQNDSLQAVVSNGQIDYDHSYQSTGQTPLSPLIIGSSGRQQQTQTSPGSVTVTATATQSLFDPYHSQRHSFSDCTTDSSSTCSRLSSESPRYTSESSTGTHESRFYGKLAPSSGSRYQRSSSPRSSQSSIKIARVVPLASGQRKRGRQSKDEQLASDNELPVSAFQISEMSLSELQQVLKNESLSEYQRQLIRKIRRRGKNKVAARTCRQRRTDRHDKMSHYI

Cytochrome P450 3A4 = Cytochrome P450 3A4 (Homo sapiens, UniProt P08684);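 note: CYP3A4 tested as one member of a cytochrome P450 panel screen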
Chain of Cytochrome P450 3A4 (P08684 whole entry): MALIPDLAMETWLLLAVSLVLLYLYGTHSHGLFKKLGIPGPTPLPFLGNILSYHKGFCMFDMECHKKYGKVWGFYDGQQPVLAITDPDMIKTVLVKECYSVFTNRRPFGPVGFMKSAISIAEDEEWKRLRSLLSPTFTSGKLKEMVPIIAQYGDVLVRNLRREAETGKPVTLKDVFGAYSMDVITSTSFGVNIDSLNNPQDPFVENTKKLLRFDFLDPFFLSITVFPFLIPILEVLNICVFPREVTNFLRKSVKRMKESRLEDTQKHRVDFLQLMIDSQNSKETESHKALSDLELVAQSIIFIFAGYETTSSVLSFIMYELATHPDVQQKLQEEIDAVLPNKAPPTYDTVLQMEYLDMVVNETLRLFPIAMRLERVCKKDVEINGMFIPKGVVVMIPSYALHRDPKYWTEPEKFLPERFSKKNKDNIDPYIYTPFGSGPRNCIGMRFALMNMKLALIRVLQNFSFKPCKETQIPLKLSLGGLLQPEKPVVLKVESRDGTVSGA

Cytochrome P450 2D6 = Cytochrome P450 2D6 (Homo sapiens, UniProt P10635);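 note: CYP2D6 member of a cytochrome P450 panel assay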
Chain of Cytochrome P450 2D6 (P10635 whole entry): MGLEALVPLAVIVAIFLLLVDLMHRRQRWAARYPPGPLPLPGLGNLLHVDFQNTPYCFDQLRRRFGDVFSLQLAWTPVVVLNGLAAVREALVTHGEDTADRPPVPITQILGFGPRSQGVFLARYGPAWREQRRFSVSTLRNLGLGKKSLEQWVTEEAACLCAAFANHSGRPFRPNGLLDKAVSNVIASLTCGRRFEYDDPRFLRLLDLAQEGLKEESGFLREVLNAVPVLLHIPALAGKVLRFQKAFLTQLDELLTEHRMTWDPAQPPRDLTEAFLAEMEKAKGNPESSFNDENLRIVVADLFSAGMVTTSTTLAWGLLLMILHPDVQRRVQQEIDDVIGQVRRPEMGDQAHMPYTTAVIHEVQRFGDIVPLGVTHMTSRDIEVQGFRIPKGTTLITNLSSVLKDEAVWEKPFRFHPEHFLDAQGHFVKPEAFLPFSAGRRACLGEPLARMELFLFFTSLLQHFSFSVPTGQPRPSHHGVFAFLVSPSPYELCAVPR

[12] = system: Streptococcus sp. 'group A'; test: growth inhibition of control SK(-) GAS strain, dose response, counter-screen for streptokinase expression inhibitor project, luminescence, kanamycin, BacTiterGlo, confirmation (AID 1900); type: functional, organism-based
Streptokinase A = molecular target: T9, Streptokinase A (Streptococcus pyogenes serotype M1, UniProt P10520); test: S. pyogenes streptokinase expression inhibitors, potency, dose response, plasminogen activation absorbance, OD405 (AID 1914); type: functional, Streptococcus pyogenes M1 GAS;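 note: secreted streptokinase activity via plasminogen activation per viability signal from cell pellet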
T9 sequence (P10520 whole entry): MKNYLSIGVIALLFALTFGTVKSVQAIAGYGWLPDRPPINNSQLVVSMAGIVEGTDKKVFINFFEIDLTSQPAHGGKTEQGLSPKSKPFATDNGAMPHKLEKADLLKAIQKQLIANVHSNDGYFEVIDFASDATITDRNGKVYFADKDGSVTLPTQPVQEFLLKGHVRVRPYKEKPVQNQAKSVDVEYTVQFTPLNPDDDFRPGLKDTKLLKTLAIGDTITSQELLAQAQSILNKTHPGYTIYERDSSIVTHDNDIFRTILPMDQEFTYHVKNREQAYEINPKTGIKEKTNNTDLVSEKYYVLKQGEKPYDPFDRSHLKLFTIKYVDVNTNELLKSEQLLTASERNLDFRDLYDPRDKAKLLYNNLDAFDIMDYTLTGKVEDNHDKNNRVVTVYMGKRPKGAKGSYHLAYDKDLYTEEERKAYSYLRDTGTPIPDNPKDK

[13] = molecular target: Induced myeloid leukemia cell differentiation protein Mcl-1 (Homo sapiens, UniProt Q07820); type: functional
Chain of Induced myeloid leukemia cell differentiation protein Mcl-1 (Q07820 whole entry): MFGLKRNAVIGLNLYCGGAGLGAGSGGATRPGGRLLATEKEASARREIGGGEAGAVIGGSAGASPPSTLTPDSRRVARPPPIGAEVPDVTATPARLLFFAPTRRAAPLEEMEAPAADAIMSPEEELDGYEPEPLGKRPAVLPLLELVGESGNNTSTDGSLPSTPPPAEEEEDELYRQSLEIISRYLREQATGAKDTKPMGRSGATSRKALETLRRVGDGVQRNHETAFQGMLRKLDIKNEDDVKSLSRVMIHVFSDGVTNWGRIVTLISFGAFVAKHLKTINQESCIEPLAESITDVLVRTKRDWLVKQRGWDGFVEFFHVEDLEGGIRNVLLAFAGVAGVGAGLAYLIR

Streptococcus = test: Group A Streptococcus viability loss, dose response, counter-screen for streptokinase expression inhibitor project, luminescence, BacTiterGlo (AID 1915); type: functional, organism-based;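 note: potency for reduction of bacterial viability or growth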
[14] = molecular target: T10, Small ubiquitin-related modifier 1 (Homo sapiens, UniProt P63165); test: inhibitors of SUMO1 peptide binding, dose response, biochemical, fluorescence polarization, uHTS hits (AID 624382); type: functional; settings: read-out: IC50_Mean
T10 sequence (P63165 whole entry): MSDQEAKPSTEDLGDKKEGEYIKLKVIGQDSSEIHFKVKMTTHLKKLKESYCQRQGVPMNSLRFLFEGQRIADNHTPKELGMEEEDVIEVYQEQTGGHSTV

[15] = molecular target: T10, Small ubiquitin-related modifier 1; test: inhibitors of SUMO1 partner interactions, dose response, biochemical, FRET (AID 624383); type: functional; settings: read-out: IC50_Mean

COc1ccc(-c2cn3cccc(C)c3n2)cc1F
AC50 (HeLa): > 350 µM (inactive)

NCCc1ccc(OCc2ccccc2)c(OCc2ccccc2)c1
AC50 [1]: 11.2 µM (active) | IC50 [2]: > 20 µM (inactive) | AC50 (A-375): 30.2 µM (active)

Nc1ccc2[nH]c(-c3ccccc3)nc2c1
AC50 (Trypsin): 3.48 µM (active) | AC50 [3]: 2.19 µM (active) | AC50 (CAAX prenyl protease 2): 2.12 µM (active) | CC50 [4]: 100 µM (active) | IC50 [5]: 30.2 µM (active)

COC(=O)c1cccc2c1NC(=O)C2=O
IC50 (HEK293): > 67.6 µM (inactive) | IC50 [6]: > 67.6 µM (inactive)

O=[N+]([O-])c1cccc(/C=C/c2nc(/C=N/c3ccccc3)c(O)o2)c1
EC50 [7]: > 300 µM (not active) | EC50 [8]: 39.4 µM (active) | EC50 [9]: > 99 µM (inactive) | EC50 [10]: 19.2 µM (active)

Cc1nc(N2CCOCC2)c2c(C)c(C(=O)Nc3ccccc3C(F)(F)F)sc2n1
EC50 [11]: > 50 µM (active) | AC50 (CAAX prenyl protease 2): 15 µM (active)

Clc1ccc(OCc2noc(-c3ccsc3)n2)c(Cl)c1
IC50 (HEK293): > 67.5 µM (inactive) | IC50 [6]: > 67.5 µM (inactive) | AC50 (HeLa): 111 µM (active) | IC50 (Protein skinhead-1): > 100 µM (inactive)

Cc1cc(C)nc(SCC(=O)N/N=C\c2sccc2C)n1
AC50 (Cytochrome P450 3A4): 15.8 µM (inconclusive) | AC50 (Cytochrome P450 2D6): inconclusive

COc1ccc(-c2cc3nc4ccccc4n3c(N)c2C#N)cc1
EC50 [12]: 1.45 µM (active) | EC50 (Streptokinase A): > 150 µM (not active) | IC50 [13]: 2.52 µM (active) | EC50 (Streptococcus): 15.7 µM (active) | AC50 (HeLa): 143 µM (active) | IC50 [14]: > 66.6 µM (inactive) | IC50 [15]: 7.98 µM (active)

O=C(c1ccccc1C(F)(F)F)N1CCN(S(=O)(=O)c2ccccc2)CC1
IC50 (HEK293): > 67.6 µM (inactive) | IC50 [6]: > 67.6 µM (inactive)
